Laboratory results from article PMC7373712 (British Journal of Clinical Pharmacology, 2020).
Where two headings read alike, the source gives them in different places.

Tests used:
CYP3A = CYP3A activity by oral microdosed midazolam; settings: for AUC: both, human, in vivo, geom. mean
[1] = Safety: adverse events in study participants; settings: for total number of AEs / participants with adverse event (AE): during the treatment named; for participants with adverse event (AE): healthy participants
[2] = Pharmacokinetics of oral microdosed FXaI cocktail; settings: for sex differences in pharmacokinetics (in words): 7 male, 11 female; for Cl/F (apparent oral clearance) / Ae (amount excreted in urine as parent drug): geom. mean (95% CI); for interaction / change of pharmacokinetics during voriconazole (in words): microdose cocktail with voriconazole
[3] = cited from earlier work
[4] = cited from earlier work; remark: listed apart in the source
[5] = microdose cocktail alone, cobicistat cohort (n = 6)
[6] = microdose cocktail alone, rifampicin cohort (n = 6)
[7] = microdose cocktail alone, voriconazole cohort (n = 6)
[8] = microdose cocktail during voriconazole (n = 6)
[9] = FXaI with cobicistat / FXaI alone

Q: For `C[C@@H](c1ncncc1F)[C@](O)(Cn1cncn1)c1ccc(F)cc1F` [voriconazole], which “CYP3A inhibition (in words)” value (CYP3A; judged from microdosed midazolam exposure) is on record?
A: strong CYP3A inhibitors

Q: What about the “total number of AEs” value [1] of the same compound?
A: 7

Q: What about the “participants with adverse event (AE)” value [1] of the same compound?
A: Five out of 6

Q: And the “visual disturbances (number of AEs)” value ([1]; during voriconazole treatment)?
A: 4

Q: With `CC(C)c1nc(CN(C)C(=O)N[C@@H](CCN2CCOCC2)C(=O)N[C@H](CC[C@H](Cc2ccccc2)NC(=O)OCc2cncs2)Cc2ccccc2)cs1` [cobicistat] as the compound, how does the “total number of AEs” value [1] read?
A: 3

Q: And the “participants with adverse event (AE)” value [1]?
A: 3 out of 6

Q: For `COc1ccc(-n2nc(C(N)=O)c3c2C(=O)N(c2ccc(N4CCCCC4=O)cc2)CC3)cc1` [apixaban], which “sex differences in pharmacokinetics (in words)” value (“sex differences” for short) [2] is on record?
A: No sex differences

Q: And the “Cl/F reduced to (% of FXaI alone)” value ([2]; by cobicistat)?
A: 60%

Q: What about the “Vss/F reduced to (% of FXaI alone)” value ([2]; by cobicistat) of the same compound?
A: ~50%

Q: What about the “increase of AUC” value ([2]; by cobicistat) of the same compound?
A: 67%

Q: And the reduction of clearance ([2]; by cobicistat)?
A: 40%

Q: What about the “Cl/F reduced to (% of FXaI alone)” value ([2]; by single dose rifampicin) of the same compound?
A: 75%

Q: What about the “Vss/F reduced to (% of FXaI alone)” value ([2]; by single dose rifampicin) of the same compound?
A: ~50%

Q: What about the “effect on Cmax (increase)” value ([2]; by single dose rifampicin) of the same compound?
A: 69%

Q: What about the reduction of clearance ([2]; by single dose rifampicin) of the same compound?
A: 25%

Q: What about the “terminal elimination half-life shortening” value ([2]; by single dose rifampicin) of the same compound?
A: ~40%

Q: And the “Cl/F reduced to (% of FXaI alone)” value ([2]; by voriconazole)?
A: 75%

Q: What about the “effect on Cmax (increase)” value ([2]; by voriconazole) of the same compound?
A: 15%

Q: And the “reduction of apparent oral clearance (Cl/F)” value ([2]; by voriconazole)?
A: 25%

Q: What about the “renal clearance reduced to (% of FXaI alone)” value ([2]; during cobicistat) of the same compound?
A: 70%

Q: What about the “Cl/F (apparent oral clearance)” value [2, 5] of the same compound?
A: 66.4 (60.0–73.5) mL/min

Q: What about the “Cl/F (apparent oral clearance)” value [2, 6] of the same compound?
A: 53.6 (44.5–64.6) mL/min

Q: What about the “Cl/F (apparent oral clearance)” value [2, 7] of the same compound?
A: 78.0 (69.0–88.4) mL/min

Q: And the “Cl/F (apparent oral clearance)” value [2, 8]?
A: 58.8 (42.5–81.4) mL/min

Q: What about the “interaction / change of pharmacokinetics during voriconazole (in words)” value (from here on “interaction / change”) [2] of the same compound?
A: minor interaction

Q: And the “excreted unchanged into faeces and urine” value ([3]; given orally)?
A: ≥ 50%

Q: What about the “fraction metabolised by CYP1A2 and CYP2J2” value ([3]; given orally) of the same compound?
A: about 6%

Q: What about the “fraction metabolised via CYP3A” value ([3]; given orally) of the same compound?
A: approximately 15%

Q: What about the “not identified or recovered so far” value ([3]; given orally) of the same compound?
A: about 22%

Q: Which elimination half-life ([3]; alone) does the source give for `Cn1c(Cn2ccc(C(F)(F)F)c(Oc3cc(Cl)cc(C#N)c3)c2=O)n[nH]c1=O` [doravirine] here?
A: 18.6 h

Q: And the elimination half-life ([3]; with a single dose of rifampicin)?
A: 5.5 h

Q: With `CO[C@H]1/C=C/O[C@@]2(C)Oc3c(C)c(O)c4c(O)c(c(/C=N/N5CCN(C)CC5)c(O)c4c3C2=O)NC(=O)/C(C)=C\C=C\[C@H](C)[C@H](O)[C@@H](C)[C@@H](O)[C@@H](C)[C@H](OC(C)=O)[C@@H]1C` [rifampicin] as the compound, how does the “participants with adverse event (AE)” value [1] read?
A: none

Q: For `Cc1ncc2n1-c1ccc(Cl)cc1C(c1ccccc1F)=NC2` [midazolam], which AUC (CYP3A; AUC2–4, 10 μg midazolam + cobicistat (n = 6)) is on record?
A: 0.27 ng·h/mL

Q: What about the AUC (CYP3A; AUC2–4, 10 μg midazolam + voriconazole (n = 6)) of the same compound?
A: 0.285 ng·h/mL

Q: For `O=C(NC[C@H]1CN(c2ccc(N3CCOCC3=O)cc2)C(=O)O1)c1ccc(Cl)s1` [rivaroxaban], which “sex differences” value [2] is on record?
A: No sex differences

Q: What about the “AUC ratio (AUCR)” value [2, 9] of the same compound?
A: 2.0

Q: What about the Cmax ratio [2, 9] of the same compound?
A: 1.39

Q: And the “Vss/F reduced to (% of FXaI alone)” value ([2]; by cobicistat)?
A: 72%

Q: What about the “renal clearance reduced by” value ([2]; by cobicistat) of the same compound?
A: ~50%

Q: What about the “terminal elimination half-life prolongation” value ([2]; by cobicistat) of the same compound?
A: 40%

Q: And the “Vss/F reduced to (% of FXaI alone)” value ([2]; by single dose rifampicin)?
A: 64%

Q: And the “terminal elimination half-life shortening” value ([2]; by single dose rifampicin)?
A: 31%

Q: And the “change of AUC” value ([2]; by voriconazole)?
A: 33%

Q: And the “reduction of apparent oral clearance (Cl/F)” value ([2]; by voriconazole)?
A: 33%

Q: And the “Ae (amount excreted in urine as parent drug)” value [2, 5]?
A: 44.5 (32.5–61.1) % of dose

Q: And the “Cl/F (apparent oral clearance)” value [2, 5]?
A: 104 (84–129) mL/min

Q: What about the “Ae (amount excreted in urine as parent drug)” value [2, 6] of the same compound?
A: 54.8 (48.7–61.6) % of dose

Q: What about the “Cl/F (apparent oral clearance)” value [2, 6] of the same compound?
A: 113 (84–152) mL/min

Q: What about the “Ae (amount excreted in urine as parent drug)” value [2, 7] of the same compound?
A: 53.7 (46.2–60.1) % of dose

Q: And the “Cl/F (apparent oral clearance)” value [2, 7]?
A: 121 (85–172) mL/min

Q: And the “Ae (amount excreted in urine as parent drug)” value [2, 8]?
A: 55.5 (47.8–64.4) % of dose

Q: And the “Cl/F (apparent oral clearance)” value [2, 8]?
A: 92 (62–137) mL/min

Q: And the “interaction / change” value [2]?
A: minor interaction

Q: What about the “share of CYP3A and CYP2J2 in total clearance” value [3] of the same compound?
A: ~ 32%

Q: And the “AUC ratio with and without ketoconazole” value ([4]; microdosed FXaI cocktail)?
A: 2.27

Q: What about the “AUC ratio with and without ketoconazole” value ([4]; therapeutic dose, single-dose, 200 mg ketoconazole) of the same compound?
A: 1.82

Q: What about the “AUC ratio with and without ketoconazole” value ([4]; therapeutic dose, steady-state, 400 mg ketoconazole) of the same compound?
A: 2.58

Q: For `CN1CCc2nc(C(=O)N[C@@H]3C[C@@H](C(=O)N(C)C)CC[C@@H]3NC(=O)C(=O)Nc3ccc(Cl)cn3)sc2C1` [edoxaban], which “sex differences” value [2] is on record?
A: No sex differences

Q: And the “Cl/F reduced to (% of FXaI alone)” value ([2]; by cobicistat)?
A: 57%

Q: And the “Vss/F reduced to (% of FXaI alone)” value ([2]; by cobicistat)?
A: 42%

Q: And the “terminal elimination half-life shortening” value ([2]; by cobicistat)?
A: 25%

Q: And the “Cl/F reduced to (% of FXaI alone)” value ([2]; by single dose rifampicin)?
A: 53%

Q: And the “Vss/F reduced to (% of FXaI alone)” value ([2]; by single dose rifampicin)?
A: 37%

Q: And the “terminal elimination half-life shortening” value ([2]; by single dose rifampicin)?
A: 30%

Q: What about the “increased fraction excreted unchanged into urine” value ([2]; by single oral dose of rifampicin) of the same compound?
A: 48.7%

Q: What about the “Ae (amount excreted in urine as parent drug)” value [2, 5] of the same compound?
A: 32.3 (23.6–44.3) % of dose

Q: What about the “Cl/F (apparent oral clearance)” value [2, 5] of the same compound?
A: 682 (578–804) mL/min

Q: And the “Ae (amount excreted in urine as parent drug)” value [2, 6]?
A: 27.2 (19.1–38.8) % of dose

Q: And the “Cl/F (apparent oral clearance)” value [2, 6]?
A: 643 (499–829) mL/min

Q: What about the “Ae (amount excreted in urine as parent drug)” value [2, 7] of the same compound?
A: 24.4 (17.7–33.6) % of dose

Q: What about the “Cl/F (apparent oral clearance)” value [2, 7] of the same compound?
A: 882 (619–1255) mL/min

Q: What about the “Ae (amount excreted in urine as parent drug)” value [2, 8] of the same compound?
A: 29.4 (21.2–40.8) % of dose

Q: What about the “Cl/F (apparent oral clearance)” value [2, 8] of the same compound?
A: 700 (445–1100) mL/min

Q: And the “interaction / change” value [2]?
A: none and No significant change

Q: And the oral bioavailability [3]?
A: ~ 50%

Q: And the “excreted unchanged into urine” value ([3]; of an oral dose)?
A: About 24%

Q: What about the “found in faeces as parent drug” value ([3]; of the oral dose) of the same compound?
A: ~ 50%
